Measurements as given in patent publication US3937695A, “P-Glu-Trp-Ser-Tyr-D-Lys-Leu-Arg-Pro-Gly-NH2 and intermediates” (American Home Products Corporation, priority 1974, dated 1976).
Where a SMILES comes first, the peptide text is derived from it. [ ]: non-standard residue; d: D form. pGlu = O=C1CC[C@@H](C(=O)O)N1

Test system: ovulation in female rats
Assay: Anti-ovulatory test in proestrous female rats
Assay type: in vivo, Sprague-Dawley rats
Procedure: In vivo tests were conducted with female rats (225 to 250 grams body weight). […] The test was conducted with mature Sprague-Dawley rats, unanesthetized, proestrous rats. On the afternoon of proestrous, each rat in the test group received six subcutaneous injections of the acetate salt of formula I in corn oil, each injection being given a half hour following the previous injection. The rats are sacrificed the next morning and the number of animals ovulating and the number of ova shed are recorded following the procedure described by E. S. France, Neuroendocrinology 6, pp 77-89 (1970). The absence of or a significant decrease in the number of ova is the criterion for an anti-ovulation effect.

CC(C)C[C@H](NC(=O)[C@@H](CCCCN)NC(=O)[C@H](Cc1ccc(O)cc1)NC(=O)[C@H](CO)NC(=O)[C@H](Cc1c[nH]c2ccccc12)NC(=O)[C@@H]1CCC(=O)N1)C(=O)N[C@@H](CCCNC(=N)N)C(=O)N1CCC[C@H]1C(=O)NCC(N)=O [Example 3, L-Pyroglutamyl-L-tryptophyl-L-seryl-L-tyrosyl-D-lysyl-L-leucyl-L-arginyl-L- prolyl-glycinamide] ([pGlu]WSY[dK]LRPG-NH2)
Inhibition of ovulation (1 mg per injection, six subcutaneous injections in corn oil, half an hour apart, on the afternoon of proestrous, rats sacrificed next morning): complete inhibition of ovulation | Ovulation inhibition (mature unanesthetized proestrous female Sprague-Dawley rats (225 to 250 g), dose of about 24 mg/kg, subcutaneous in corn oil): all of the rats tested
